Data published in ChEMBL document CHEMBL3632478, “Design, synthesis and biological evaluation of imidazopyridine/imidazopyrimidine-benzimidazole conjugates as potential anticancer agents” (Medchemcomm, 2015).
Calls of active or inactive are those of the source. The rule behind the calls is not given here.

What was measured:
[1] = tested on: DU-145; experiment: Antiproliferative activity against human DU145 cells after 48 hrs by MTT assay; type: functional, cell-based; details: DU-145, 48 h
[2] = tested on: B16; experiment: Antiproliferative activity against mouse B16 cells after 48 hrs by MTT assay; type: functional, cell-based; details: B16, 48 h
[3] = tested on: A549; experiment: Antiproliferative activity against human A549 cells after 48 hrs by MTT assay; type: functional, cell-based; details: A549, 48 h
[4] = tested on: HeLa; experiment: Antiproliferative activity against human HeLa cells after 48 hrs by MTT assay; type: functional, cell-based
[5] = tested on: A549; experiment: Induction of apoptosis in human A549 cells assessed as viable cells at 2 uM after 48 hrs by annexin V-FITC and propidium iodide double staining based flow cytometric analysis (reference value: 99.79%); type: functional; details: A549, 48 h, read-out: Activity
[6] = tested on: A549; experiment: Cell cycle arrest in human A549 cells assessed as accumulation at S phase at 2 uM after 48 hrs by propidium iodide based flow cytometry (reference value: 3.59%); type: functional
[7] = tested on: A549; experiment: Induction of apoptosis in human A549 cells assessed as viable cells at 1 uM after 48 hrs by annexin V-FITC and propidium iodide double staining based flow cytometric analysis (reference value: 99.79%); type: functional; details: A549, 48 h, read-out: Activity
[8] = tested on: A549; experiment: Cell cycle arrest in human A549 cells assessed as accumulation at G0/G1 phase at 1 uM after 48 hrs by propidium iodide based flow cytometry (reference value: 85.63%); type: functional
[9] = tested on: A549; experiment: Induction of apoptosis in human A549 cells assessed as DNA fragmentation at 1 uM after 48 hrs by ethidium bromide based agarose gel electrophoresis; type: functional, cell-based
[10] = tested on: A549; experiment: Induction of apoptosis in human A549 cells assessed as late apoptotic cells at 1 uM after 48 hrs by annexin V-FITC and propidium iodide double staining based flow cytometric analysis (reference value: 0.14%); type: functional
[11] = tested on: A549; experiment: Cell cycle arrest in human A549 cells assessed as accumulation at sub G1 phase at 1 uM after 48 hrs by propidium iodide based flow cytometry (reference value: 0.65%); type: functional
[12] = tested on: A549; experiment: Induction of apoptosis in human A549 cells assessed as […] condensation at 1 uM after 48 hrs by Hoechst 33342 based fluorescent microscopic analysis; type: functional, cell-based
[13] = tested on: A549; experiment: Cell cycle arrest in human A549 cells assessed as accumulation at sub G1 phase at 2 uM after 48 hrs by propidium iodide based flow cytometry (reference value: 0.65%); type: functional
[14] = biological target: Tubulin (Sus scrofa) (UniProt P02554+P02550); experiment: Inhibition of porcine brain tubulin polymerization at 3 uM after 1 hr by fluorescence assay
[15] = tested on: A549; experiment: Induction of apoptosis in human A549 cells assessed as caspase-3 activation at 2 uM after 48 hrs by Ac-DEVD substrate based fluorescence assay relative to control; type: functional
[16] = tested on: A549; experiment: Induction of apoptosis in human A549 cells assessed as late apoptotic cells at 2 uM after 48 hrs by annexin V-FITC and propidium iodide double staining based flow cytometric analysis (reference value: 0.14%); type: functional
[17] = tested on: A549; experiment: Induction of apoptosis in human A549 cells assessed as dead cells at 2 uM after 48 hrs by annexin V-FITC and propidium iodide double staining based flow cytometric analysis (Rvb =0.07%); type: functional
[18] = tested on: A549; experiment: Induction of apoptosis in human A549 cells assessed as early apoptotic cells at 1 uM after 48 hrs by annexin V-FITC and propidium iodide double staining based flow cytometric analysis (reference value: 0%); type: functional
[19] = tested on: A549; experiment: Cell cycle arrest in human A549 cells assessed as accumulation at G2/M phase at 2 uM after 48 hrs by propidium iodide based flow cytometry (reference value: 10.39%); type: functional
[20] = tested on: A549; experiment: Cell cycle arrest in human A549 cells assessed as accumulation at G2/M phase at 1 uM after 48 hrs by propidium iodide based flow cytometry (reference value: 10.39%); type: functional
[21] = tested on: A549; experiment: Induction of apoptosis in human A549 cells assessed as apoptotic bodies at 1 uM after 48 hrs by Hoechst 33342 based fluorescent microscopic analysis; type: functional, cell-based
[22] = tested on: A549; experiment: Induction of apoptosis in human A549 cells assessed as caspase-3 activation at 1 uM after 48 hrs by Ac-DEVD substrate based fluorescence assay relative to control; type: functional
[23] = biological target: Tubulin (Sus scrofa, UniProt P02554+P02550); experiment: Inhibition of porcine brain tubulin polymerization after 1 hr by fluorescence assay
[24] = tested on: A549; experiment: Induction of apoptosis in human A549 cells assessed as dead cells at 1 uM after 48 hrs by annexin V-FITC and propidium iodide double staining based flow cytometric analysis (Rvb =0.07%); type: functional
[25] = tested on: A549; experiment: Cell cycle arrest in human A549 cells assessed as accumulation at G0/G1 phase at 2 uM after 48 hrs by propidium iodide based flow cytometry (reference value: 85.63%); type: functional
[26] = tested on: A549; experiment: Inhibition of microtubule organization in human A549 cells at 1 uM after 48 hrs by immunofluorescence microscopic analysis; type: cell-based
[27] = tested on: A549; experiment: Induction of apoptosis in human A549 cells assessed as early apoptotic cells at 2 uM after 48 hrs by annexin V-FITC and propidium iodide double staining based flow cytometric analysis (reference value: 0%); type: functional
[28] = tested on: A549; experiment: Induction of apoptosis in human A549 cells assessed as nuclear fragmentation at 1 uM after 48 hrs by Hoechst 33342 based fluorescent microscopic analysis; type: functional, cell-based
[29] = tested on: A549; experiment: Cell cycle arrest in human A549 cells assessed as accumulation at S phase at 1 uM after 48 hrs by propidium iodide based flow cytometry (reference value: 3.59%); type: functional

Chain of Tubulin (Sus scrofa) (P02550 whole entry, looked up): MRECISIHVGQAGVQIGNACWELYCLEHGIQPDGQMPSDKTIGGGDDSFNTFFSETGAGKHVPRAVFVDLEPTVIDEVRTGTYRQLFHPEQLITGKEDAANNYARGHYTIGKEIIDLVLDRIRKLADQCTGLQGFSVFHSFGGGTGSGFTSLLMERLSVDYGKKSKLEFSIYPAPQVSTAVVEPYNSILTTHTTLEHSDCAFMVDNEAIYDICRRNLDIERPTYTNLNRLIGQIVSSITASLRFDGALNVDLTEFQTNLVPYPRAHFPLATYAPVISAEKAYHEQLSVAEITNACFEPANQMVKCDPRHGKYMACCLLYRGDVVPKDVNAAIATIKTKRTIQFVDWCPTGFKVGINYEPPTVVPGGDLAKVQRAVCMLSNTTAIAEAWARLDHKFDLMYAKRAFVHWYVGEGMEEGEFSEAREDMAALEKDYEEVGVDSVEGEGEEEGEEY
Chain of Tubulin (Sus scrofa) (P02554 whole entry, looked up): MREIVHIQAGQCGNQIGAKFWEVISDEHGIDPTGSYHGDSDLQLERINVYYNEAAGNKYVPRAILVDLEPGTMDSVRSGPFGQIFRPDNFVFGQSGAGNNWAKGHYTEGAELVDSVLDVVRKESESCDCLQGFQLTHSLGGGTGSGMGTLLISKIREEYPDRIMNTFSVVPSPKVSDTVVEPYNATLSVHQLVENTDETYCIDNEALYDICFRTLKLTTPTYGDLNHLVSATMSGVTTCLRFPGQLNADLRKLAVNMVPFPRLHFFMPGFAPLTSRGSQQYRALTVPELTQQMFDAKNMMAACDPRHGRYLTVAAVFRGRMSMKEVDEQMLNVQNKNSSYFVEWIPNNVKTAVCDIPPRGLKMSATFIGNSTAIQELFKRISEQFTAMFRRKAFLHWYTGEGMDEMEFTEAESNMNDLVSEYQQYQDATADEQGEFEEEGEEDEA

With `Fc1ccc(-c2nc3ncccn3c2-c2nc3ccc(F)cc3[nH]2)cc1` the IC50 [1] was 14.4 µM, the IC50 [2] was 15.6 µM and the IC50 [3] was 19.2 µM. It also gave an IC50 [4] of 15.3 µM.

In the case of `COc1ccc(-c2nc3ccccn3c2-c2nc3ccc(F)cc3[nH]2)cc1`, the IC50 [1] is reported as 15.9 µM, the IC50 [2] is reported as 14.8 µM and the IC50 [3] is reported as 14.6 µM. It also gave an IC50 [4] of 17.6 µM.

`Fc1ccc(-c2nc3ncccn3c2-c2nc3ccc(Cl)cc3[nH]2)cc1` was tested, and the IC50 [1] was 12.6 µM, the IC50 [2] was over 30 µM and the IC50 [3] was 19.7 µM. The IC50 [4] was 20.3 µM.

Work on `COc1ccc(-c2nc3ccccn3c2-c2nc3ccc(C)cc3[nH]2)cc1` yielded an IC50 [1] of over 30 µM, an IC50 [2] of over 30 µM and an IC50 [3] of over 30 µM. The IC50 [4] was 26.4 µM.

With `COc1ccc2nc(-c3c(-c4ccccc4)nc4ncccn34)[nH]c2c1` the IC50 [1] was 3.71 µM, the IC50 [2] was 10.2 µM and the IC50 [3] was 2.12 µM. For the same compound, the IC50 [4] was 9.33 µM.

`COc1ccc2nc(-c3c(-c4ccc(F)cc4)nc4ncccn34)[nH]c2c1` showed an IC50 [1] of 16 µM, an IC50 [2] of over 30 µM and an IC50 [3] of 18.6 µM. It also gave an IC50 [4] of 19.9 µM.

For `Fc1ccc2nc(-c3c(-c4ccccc4)nc4ncccn34)[nH]c2c1`, the IC50 [1] was 4.89 µM, the IC50 [2] was 17 µM and the IC50 [3] was 8.51 µM. For the same compound, the IC50 [4] was 6.91 µM.

In the case of `COc1ccc(-c2nc3ccccn3c2-c2nc3ccccc3[nH]2)cc1`, the IC50 [1] is reported as 24 µM, the IC50 [2] is reported as over 30 µM and the IC50 [3] is reported as 23.2 µM. For the same compound, the IC50 [4] was 20.4 µM.

For `COc1ccc(-c2nc3ncccn3c2-c2nc3ccc(Cl)cc3[nH]2)cc1`, the IC50 [1] was 19.9 µM, the IC50 [2] was 26.8 µM and the IC50 [3] was 10.2 µM. The IC50 [4] was 14 µM.

`c1ccc(-c2nc3ncccn3c2-c2nc3ccccc3[nH]2)cc1` was tested, and the viability at 2 µM [5] was 88.4%, the Activity [6] was 2.88% and the viability at 1 µM [7] was 91.9%. The Activity [8] was 83.5%, the Activity [9] was “Active” and the Activity [10] was 2.69%. For the same compound, the Activity [11] was 1.28%, the Activity [12] was “Active” and the Activity [13] was 2.7%. For the same compound, the inhibition [14] was 60.5%, the “fold change (FC)” value [15] was 2 and the IC50 [1] was 2.34 µM. The Activity [16] was 1.2%, the IC50 [2] was 10.5 µM and the Activity [17] was 0.18%. The Activity [18] was 5.08%, the Activity [19] was 33.8% and the IC50 [3] was 1.92 µM. The Activity [20] was 12.6%, the Activity [21] was “Active” and the “fold change (FC)” value [22] was 2. The IC50 [23] was 2.26 µM, the Activity [24] was 0.35% and the Activity [25] was 64.8%. For the same compound, the IC50 [4] was 2.25 µM, the inhibition [26] was “Active” and the Activity [27] was 10.25%. For the same compound, the Activity [28] was “Active” and the Activity [29] was 3.71%.

Work on `COC(=O)Nc1nc2cc(C(=O)c3cccs3)ccc2[nH]1` [NOCODAZOLE] yielded a viability at 1 µM [7] of 87%, an Activity [8] of 63.76% and an Activity [10] of 1.29%. The Activity [11] was 9.23%, the inhibition [14] was 66.9% and the IC50 [1] was 0.25 µM. For the same compound, the IC50 [2] was 0.69 µM, the Activity [18] was 11.71% and the IC50 [3] was 1.62 µM. It also gave an Activity [20] of 24.28%, an Activity [24] of 0.04% and an IC50 [4] of 2.23 µM. For the same compound, the Activity [29] was 0.69%.

`Cc1ccc2nc(-c3c(-c4ccc(F)cc4)nc4ncccn34)[nH]c2c1` gave an IC50 [1] of 10.2 µM, an IC50 [2] of 15.1 µM and an IC50 [3] of over 30 µM. It also gave an IC50 [4] of 12.9 µM.

`COc1ccc(-c2nc3ccccn3c2-c2nc3ccc(OC)cc3[nH]2)cc1` gave an IC50 [1] of over 30 µM, an IC50 [2] of over 30 µM and an IC50 [3] of over 30 µM. For the same compound, the IC50 [4] was over 30 µM.

In the case of `COc1ccc(-c2nc3ncccn3c2-c2nc3ccc(C)cc3[nH]2)cc1`, the viability at 2 µM [5] is reported as 85.1%, the Activity [6] is reported as 3.63% and the viability at 1 µM [7] is reported as 90.2%. The Activity [8] was 82.68%, the Activity [9] was “Active” and the Activity [10] was 1.43%. For the same compound, the Activity [11] was 0.76%, the Activity [12] was “Active” and the Activity [13] was 2.19%. The inhibition [14] was 61.1%, the “fold change (FC)” value [15] was 2 and the IC50 [1] was 7.08 µM. The Activity [16] was 1.3%, the IC50 [2] was 3.63 µM and the Activity [17] was 0.07%. The Activity [18] was 8.18%, the Activity [19] was 29% and the IC50 [3] was 1.48 µM. The Activity [20] was 11.7%, the Activity [21] was “Active” and the “fold change (FC)” value [22] was 2. For the same compound, the IC50 [23] was 2.06 µM, the Activity [24] was 0.22% and the Activity [25] was 59.33%. The IC50 [4] was 2.57 µM, the inhibition [26] was “Active” and the Activity [27] was 13.49%. The Activity [28] was “Active” and the Activity [29] was 3.65%.

`COc1ccc(-c2nc3ncccn3c2-c2nc3ccccc3[nH]2)cc1` gave an IC50 [1] of 13.2 µM, an IC50 [2] of 16.7 µM and an IC50 [3] of 10.5 µM. For the same compound, the IC50 [4] was 9.06 µM.

`Cc1ccc2nc(-c3c(-c4ccccc4)nc4ncccn34)[nH]c2c1` showed an IC50 [1] of 2.34 µM, an IC50 [2] of 8.91 µM and an IC50 [3] of 2.19 µM. The IC50 [4] was 7.58 µM.

Work on `Clc1ccc2nc(-c3c(-c4ccccc4)nc4ncccn34)[nH]c2c1` yielded an IC50 [1] of over 30 µM, an IC50 [2] of over 30 µM and an IC50 [3] of over 30 µM. It also gave an IC50 [4] of over 30 µM.

With `Fc1ccc(-c2nc3ncccn3c2-c2nc3ccccc3[nH]2)cc1` the IC50 [1] was 7.78 µM, the IC50 [2] was 16.6 µM and the IC50 [3] was 11 µM. For the same compound, the IC50 [4] was 8.19 µM.

For `COc1ccc(-c2nc3ccccn3c2-c2nc3ccc(Cl)cc3[nH]2)cc1`, the IC50 [1] was 19.5 µM, the IC50 [2] was 16 µM and the IC50 [3] was 19.4 µM. The IC50 [4] was 14.5 µM.

In the case of `COc1ccc(-c2nc3ncccn3c2-c2nc3ccc(F)cc3[nH]2)cc1`, the IC50 [1] is reported as 13.8 µM, the IC50 [2] is reported as 19.4 µM and the IC50 [3] is reported as 15.1 µM. The IC50 [4] was 17 µM.

`COc1ccc(-c2nc3ncccn3c2-c2nc3ccc(OC)cc3[nH]2)cc1` was tested, and the IC50 [1] was 5.62 µM, the IC50 [2] was 19.9 µM and the IC50 [3] was 6.91 µM. The IC50 [4] was 15.8 µM.
